Results: patent US12029738B2, “Antiproliferative compounds and methods of use thereof” (Celgene Corporation, priority 2017, dated 2024)

Experiments:
H929-1051 xenograft = assay: Lenalidomide-resistant H929-1051 xenograft, continuous QD dosing; type: in vivo, mouse
Text: FIG. 4. Antitumor activity of Compound 2 with continuous dosing in lenalidomide-resistant H929-1051 xenograft model. Female SCID mice were inoculated with 10×10^6 H929-1051 tumor cells into the right flank. Mice were randomized into treatment groups (n=10/group) at the time of treatment initiation. Test article treatment started on Day 14 when the tumors were approximately 120 mm^3.
Antitumor Activity of Compound 2 in Lenalidomide-resistant Multiple Myeloma Xenograft Model. The purpose of the study was to test the single agent antitumor activity of Compound 2 in an H929-1051 xenograft model with once daily dosing (QD) at 1, 3, 10, and 30 mg/kg.

[1] = tested on: lenalidomide-resistant multiple myeloma cells (H929-1051); assay: Apoptosis induction with dexamethasone combinations (Caspase-Glo 3/7, 72 h); type: cell-based, human
Procedure: Methods: Dexamethasone was assessed for its ability to induce apoptosis as a single agent or in combination with Compound 2, pomalidomide, or lenalidomide. Induction of apoptosis was measured using Caspase-Glo in lenalidomide-resistant multiple myeloma cells (H929-1051). Dexamethasone was dispensed at 20 concentrations, using an acoustic dispenser. The test articles were added as single concentrations onto the dexamethasone wells with a Hewlett-Packard D300 Digital Dispenser. The final concentrations of compounds for the assay were: dexamethasone (0.8 μM to 0.00002 μM), lenalidomide (1 μM), pomalidomide (0.1 μM), and Compound 2 (0.001, 0.01, or 0.1 μM). Cells were dispensed into the assay plates with a Multidrop dispenser and duplicate plates were made for the assay. The apoptosis read was taken at 72 h post-compound treatment using a Caspase-Glo 3/7 and CellTiter-Glo Assays. The Caspase-Glo 3/7 luminescence was normalized to the CellTiter-Glo luminescence to account for differences in cell number. The fold change of the treated sample was calculated as follows: normalized caspase of treated sample/average of normalized DMSO control.

MM cell lines = assay: Daratumumab-mediated ADCC assay; type: cell-based, human
Procedure: ADCC Assay: The effect of Compound 2 or pomalidomide on daratumumab-mediated ADCC was evaluated in vitro by flow cytometry in a panel of MM cell lines. The NK cells were cultured overnight in NK culture medium containing 10 U/mL of recombinant human IL-2 before the start of the assay. The NK cells were washed and resuspended back in NK cell culture medium at 3.75×10^6 cells/mL. The MM cells were pretreated with sub-lethal concentrations of Compound 2 or pomalidomide for 72 h before using in the ADCC assay. The MM cells were washed and labelled with Tag-it Violet™ Proliferation and Cell Tracking Dye according to the manufacturer's instructions, followed by resuspension in NK culture medium at a concentration of 0.75×10^6 cells/mL. The ADCC assay was performed in triplicate with an effector to tumor ratio of 10:1 in a 96 well plate. MM cells (10 μL) were mixed with 10 μL of 2× concentration of daratumumab in the wells before the addition of 20 μL of NK cells. The co-cultures were incubated at 37° C. for 3 h followed by the addition of 50 μL of 7-AAD solution at room temperature for 15 minutes. The analysis was performed on a BD Celesta flow cytometer.

[2] = tested on: lenalidomide-resistant NCI-H929 (H929-1051) multiple myeloma/plasmacytoma tumors; assay: H929-1051 xenograft, Compound 2 alone and with dexamethasone; type: in vivo, mouse

## N#Cc1ccc(N2CCN(Cc3ccc(COc4cccc5c4CN([C@H]4CCC(=O)NC4=O)C5=O)cc3)CC2)c(F)c1 [Compound 2, (S)-4-(4-(4-(((2-(2,6-dioxopiperidin-3-yl)-1-oxoisoindolin-4-yl)oxy)methyl)benzyl)piperazin-1-yl)-3-fluorobenzonitrile]
H929-1051 xenograft; 1 mg/kg QD
  tumor volume reduction: 75%
H929-1051 xenograft; 3 mg/kg QD
  tumor volume reduction: 86%
H929-1051 xenograft; 10 mg/kg QD
  tumor volume reduction: 84%
H929-1051 xenograft; 30 mg/kg QD
  tumor volume reduction: 85%
[1]; Compound 2 0.001, 0.01, 0.1 μM
  combination effect with dexamethasone on cell viability and apoptosis: synergized with dexamethasone
[1]; caspase-3 induction
  shift of the onset of dexamethasone activity in the presence of Compound 2: 1 log
MM cell lines; 72 h pretreatment, sub-lethal concentrations, NK cells E:T 10:1
  daratumumab-mediated ADCC of pretreated MM cells: higher degree of tumor lysis with daratumumab compared to untreated cells
MM cell lines; ARH-77 cell line
  daratumumab-mediated ADCC: enhanced ADCC
[2]; Compound 2 0.1 mg/kg and dexamethasone 0.5 mg/kg
  combination antitumor activity (fractional product method): synergistic
[2]; Compound 2 0.1 mg/kg in combination with dexamethasone 0.5 mg/kg
  tumor volume reduction (TVR): 84%
[2]; single agent Compound 2 0.1 mg/kg oral once daily
  tumor growth inhibition / tumor volume reduction (TVR): 34%
